Assay results from patent US12415819B2, “Cu- and Ni-catalyzed decarboxylative borylation reactions” (The Scripps Research Institute, priority 2017, dated 2025).

Key:
[1] = target: elastase in COPD patient sputum (Homo sapiens (Human), UniProt P08246); assay: Elastase inhibition assay in COPD patient sputum; type: biochemical
Method: Serially diluted compounds in DMSO were dispensed into a 384-well black opaque plate by Echo dispenser. 0.1 μg/mL human neutrophil elastase (EPC, Catalog# SE563, Owensville, Ms.) or human sputum diluted with assay buffer (100 mM HEPES, 500 mM NaCl, 0.02% Tween 20) was added into the 384-well plate, and was incubated with different compounds at different concentrations for 30 minutes at room temperature. The final concentration of DMSO in the reaction was 0.1%. Elastase substrate MeOSuc-AAPV-AMC (Bachem, Catalog #I-1270, Torrance, CA) of 100 μM final concentration was then added into the reaction system just before enzyme kinetics were read on PheraSTAR plate reader at excitation of 380 nm and emission of 460 nm with a 3-minutes interval for 30 minutes in total. Slope of fluorescence intensity vs. time representing the Vmax of enzyme activity was calculated with MARS software. % relative inhibition was calculated as: […]
IC50 was calculated based on the % relative inhibition curve using log(agonist) vs. response (three parameters) method with Prism software. All experiments were performed in triplicate for at least three independent times.
Human sputum was purchased from Discovery Life Sciences (Los Osos, CA). Human sputum was diluted 1:10 in volume with assay buffer (100 mM HEPES, 500 mM NaCl, 0.02% Tween 20) followed by vigorous vortexing. The 1:10 diluted human sputum was further diluted into 1:30, 1:90, 1:270, 1:810, and 1:2430. The elastase concentration was determined by elastase inhibition assay as described above. Specifically, a series of standards of human neutrophil elastase (starting at 2 μg/mL and further diluted 1:2 in volume) were prepared in the assay buffer. The samples and standards were plated in a 384-well black solid bottom plate; the substrate MeOSuc-AAPV-AMC of 100 μM final concentration was then added into the reaction system just before enzyme kinetics were read on PheraSTAR plate reader as mentioned above. The slope of enzymatic kinetic reading was calculated by MARS software. The elastase levels of the human sputum were calculated based on the standard curve.

[2] = target: T1, human neutrophil elastase (Homo sapiens (Human), UniProt P08246); assay: Elastase inhibition assay, purified human neutrophil elastase; type: biochemical; conditions: purified HNE
T1 sequence (P08246 30-247): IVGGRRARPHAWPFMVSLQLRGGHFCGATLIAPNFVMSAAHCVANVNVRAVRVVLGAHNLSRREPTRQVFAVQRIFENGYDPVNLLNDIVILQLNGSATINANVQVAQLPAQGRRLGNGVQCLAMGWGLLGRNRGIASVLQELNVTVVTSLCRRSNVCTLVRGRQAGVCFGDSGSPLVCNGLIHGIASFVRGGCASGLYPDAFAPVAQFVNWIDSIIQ

[3] = target: T1, human neutrophil elastase; assay: Time dependence of elastase inhibition; type: biochemical
Method: The procedure for the elastase inhibition assay was followed with slight modifications. 0.1 μg/mL human neutrophil elastase was incubated with a range of concentrations of inhibitors for 5, 15, 30 and 60 minutes before substrate MeOSuc-AAPV-AMC of 100 μM final concentration was added. Enzyme kinetics were read on PheraSTAR plate reader and IC50 was calculated with the method described above.

in vitro = conditions: mouse, pH 7.4; for Extraction ratio / Microsomal stability (Mouse ER) / Remaining (*NCF = 60min) / Remaining (T = 60 min): 1 μM; for Microsomal stability (Mouse ER) / Remaining (*NCF = 60min) / Remaining (T = 60 min) / CLint scaled at 1 μM / half-life at 1 μM / microsomal CLint at 1 μM: microsomes; for Remaining (*NCF = 60min) / Remaining (T = 60 min): 1 h
Method: 100 mM potassium phosphate buffer, pH 7.4. • 2. 10 mM MgCl2 • 3) Compound Dilution:
Intermediate solution was prepared by diluting 5 μL of compound or control stock solution (10 mM in DMSO) with DMSO (45 μL) and 1:1 Methanol/Water (450 μL) (concentration=100 μM, 45% MeOH). Working solution was prepared by diluting 50 μL of the intermediate solution with 450 μL of 100 mM potassium phosphate buffer, pH=7.4 (centration=10 μM, 4.5% MeOH). • 4) NADPH regenerating system (final Isocitric dehydrogenase concentration=1 unit/mL at incubation) comprised:
10 μL/well of compound working solution or control working solution was added to all plates (T0, T5, T10, T20, T30, T60, NCF60) except the matrix blank. 80 μL/well of microsome solution was added to every plate. The mixtures of microsome solution and compound were incubated at 37° C. for about 10 min. 10 μL/well of NADPH regenerating system (pre-warmed to 37° C.) was then added to every plate to start the reaction. […] For NCF60 (abbreviation of no co-factor) no NADPH regenerating system was added, but was replaced by 10 μL/well of potassium phosphate buffer (100 mM, pH 7.4); the resulting mixture was incubated at 37° C. for 1 h.
The reactions were then terminated with the stop solution (cold at 4° C.) containing 100 ng/mL Tolbutamide and 100 ng/mL Labetalol ([…]). The sampling plates were shaken for approximately 10 minutes, then were centrifuged at 4000 rpm for 20 min at 4° C. While centrifuging, 8 new 96 well plates were loaded with […] of HPLC grade water. 100 μL of supernatant was finally added to 300 μL of HPLC grade water and mixed for LC/MS/MS analysis.
The equation of first order kinetics was used to calculate T1/2 and CIint(mic): […]

[4] = 5 min incubation with inhibitor
[5] = 15 min incubation with inhibitor
[6] = 30 min incubation with inhibitor
[7] = 60 min incubation with inhibitor

elastase in COPD patient sputum, sequence (P08246 30-267): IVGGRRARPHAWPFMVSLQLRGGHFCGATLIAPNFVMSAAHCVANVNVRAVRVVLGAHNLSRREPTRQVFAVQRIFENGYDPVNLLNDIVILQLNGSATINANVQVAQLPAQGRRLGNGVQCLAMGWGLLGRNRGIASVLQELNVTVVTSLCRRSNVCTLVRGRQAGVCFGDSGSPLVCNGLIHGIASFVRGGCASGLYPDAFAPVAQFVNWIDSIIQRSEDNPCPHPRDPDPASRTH

## CC(C)[C@H](NC(=O)[C@@H]1CCCN1C(=O)[C@@H](NC(=O)c1ccc(C(=O)NS(=O)(=O)c2ccc(Cl)cc2)cc1)C(C)C)B(O)O [Compound 51, (1-((S)-1-((4-(((4-chlorophenyl)sulfonyl)carbamoyl)benzoyl)-L-valyl)pyrrolidine-2-carboxamido)-2-methylpropyl)boronic acid]
[1]
  IC50: 22.3 ± 0.6 pM
  LipE: 7.46
[2]
  Ki: 34 pM
[3]; [4]
  IC50: 27 pM
[3]; [5]
  IC50: 30 pM
[3]; [6]
  IC50: 37 pM
[3]; [7]
  IC50: 26 pM
In vitro
  Extraction ratio: <0.3
  Microsomal stability (Mouse ER): <0.3
  Remaining (*NCF = 60min): 95.0%
  Remaining (T = 60 min): 85.8%
  CLint scaled at 1 μM: < 38 mL/min/kg
  half-life at 1 μM: > 2.42 h
  microsomal CLint at 1 μM: < 9.6 µL/min/mg

## CC(C)[C@H](NC(=O)[C@@H]1CCCN1C(=O)[C@@H](NC(=O)c1ccc(C(=O)NCC(=O)O)cc1)C(C)C)B(O)O [Compound 52, (4-(((2S)-1-((2S)-2-((1-borono-2-methylpropyl)carbamoyl)pyrrolidin-1-yl)-3-methyl-1-oxobutan-2-yl)carbamoyl)benzoyl)glycine]
[1]
  IC50: 12.7 ± 0.8 pM
  LipE: 10.2
[2]
  Ki: 3.7 pM
[3]; [4]
  IC50: 4 pM
[3]; [5]
  IC50: 4.7 pM
[3]; [6]
  IC50: 4.2 pM
[3]; [7]
  IC50: 4.2 pM
[3]; between 5-60 minutes
  change of IC50 with increasing incubation times (in words): remain unchanged
In vitro
  Extraction ratio: <0.3
  Microsomal stability (Mouse ER): <0.3
  Remaining (*NCF = 60min): 103.6%
  Remaining (T = 60 min): 78.9%
  CLint scaled at 1 μM: < 38 mL/min/kg
  half-life at 1 μM: > 2.42 h
  microsomal CLint at 1 μM: < 9.6 µL/min/mg
